From patent publication US20160024083A1, “COMPOUNDS AND METHODS FOR TREATING CANCERS” (HEALTH RESEARCH, INC., priority 2013, published 2016)

Legend:
ZR751 = assay: Sensitivity to growth inhibition, ZR751; format: cell-based; settings: Luminal breast carcinoma, AR+
PC3 = assay: Inhibition of growth / toxicity in non-target PC3 cells; format: cell-based; settings: castration resistant prostate cancer, AR−
Method: (§1) This example provides a table (below) of the compounds of the present disclosure and their activity towards four different cell lines (i.e., CWR22R, HeLa, PC3, and MDA-MB-231). The IC50 for inhibition of growth is divided into 4 categories: A<1 μM, B 1-5 μM, C 5-20 μM, D>20 μM.
(§2) All compounds were tested for toxicity using 4 cells lines, target cells—CWR22R and non-target cells, Hela, PC3 and MDA-MB-231 (FIGS. 1A-F).

HCC202 = assay: Sensitivity to growth inhibition, HCC202; format: cell-based; settings: Luminal breast carcinoma, AR−
HCC1419 = assay: Sensitivity to growth inhibition, HCC1419; format: cell-based; settings: Luminal breast carcinoma, AR+
HMEC = assay: Sensitivity to growth inhibition, HMEC; format: cell-based; settings: normal breast
VCaP = assay: Sensitivity to growth inhibition, VCaP; format: cell-based; settings: castration resistant prostate cancer, Armut
MDAMB415 = assay: Sensitivity to growth inhibition, MDAMB415; format: cell-based; settings: Luminal breast carcinoma, AR+
SKRC45 = assay: Sensitivity to growth inhibition, SKRC45; format: cell-based; settings: renal cell carcinoma, AR−
MCF7 = assay: Sensitivity to growth inhibition, MCF7; format: cell-based; settings: Luminal breast carcinoma, AR+
Du145 = assay: Sensitivity to growth inhibition, Du145; format: cell-based; settings: castration resistant prostate cancer, AR−
AU565 = assay: Sensitivity to growth inhibition, AU565; format: cell-based; settings: Luminal breast carcinoma, AR+
MRC5 = assay: Sensitivity to growth inhibition, MRC5; format: cell-based; settings: normal fibroblasts, AR−
Hep3B = assay: Sensitivity to growth inhibition, Hep3B; format: cell-based; settings: hepatocellular carcinoma, AR +
normal hepatocytes = assay: Sensitivity to growth inhibition, normal hepatocytes; format: cell-based
EFM192A = assay: Sensitivity to growth inhibition, EFM192A; format: cell-based; settings: Luminal breast carcinoma, AR−
HepG2 = assay: Sensitivity to growth inhibition, HepG2; format: cell-based; settings: hepatocellular carcinoma, AR +
CAMA1 = assay: Sensitivity to growth inhibition, CAMA1; format: cell-based; settings: Luminal breast carcinoma, AR+
ZR7530 = assay: Sensitivity to growth inhibition, ZR7530; format: cell-based; settings: Luminal breast carcinoma, AR+
MDAMB453 = assay: Sensitivity to growth inhibition, MDAMB453; format: cell-based; settings: Luminal breast carcinoma, AR+
MCF10A = assay: Sensitivity to growth inhibition, MCF10A; format: cell-based; settings: mammary gland epithelium
BT474 = assay: Sensitivity to growth inhibition, BT474; format: cell-based; settings: Luminal breast carcinoma, AR+
LNCaP = assay: Sensitivity to growth inhibition, LNCaP; format: cell-based; settings: castration resistant prostate cancer, AR+
MDA-MB-231 = assay: Inhibition of growth / toxicity in non-target MDA-MB-231 cells; format: cell-based; settings: Homo sapiens
Method: as §1, §2

ACHN = assay: Sensitivity to growth inhibition, ACHN; format: cell-based; settings: renal cell carcinoma, AR−
UACC893 = assay: Sensitivity to growth inhibition, UACC893; format: cell-based; settings: Luminal breast carcinoma, AR+
T47D = assay: Sensitivity to growth inhibition, T47D; format: cell-based; settings: Luminal breast carcinoma, AR+
PPC1 = assay: Sensitivity to growth inhibition, PPC1; format: cell-based; settings: castration resistant prostate cancer, AR−
SUM185PE = assay: Sensitivity to growth inhibition, SUM185PE; format: cell-based; settings: Luminal breast carcinoma, AR+
Hela = assay: Inhibition of growth / toxicity in non-target Hela cells; format: cell-based
Method: as §1, §2

HT1080 = assay: Sensitivity to growth inhibition, HT1080; format: cell-based; settings: fibrosarcoma AR−
C4-2 = assay: Sensitivity to growth inhibition, C4-2; format: cell-based; settings: castration resistant prostate cancer, AR+
PANC1 = assay: Sensitivity to growth inhibition, PANC1; format: cell-based; settings: pancreatic adenocarcinoma, AR−
CWR22R = assay: cells; format: cell-based
Method: FIG. 21. Toxicity of PLA1055 to CWR22R cells in vitro depending on time of incubation. PLA1055 was added to CWR22R in full range of concentrations for the periods of time shown on the right. After that drug containing media were changed for drug free and survival of cells was detected at 72 hours after start of treatment using Alamar Blue assay (Promega).
as §1, §2
(§3) LC50 data of in vitro 72 hours cytotoxicity assay are included in this table for comparison.
An in vitro experiment was run to detect the concentration of PLA1055 needed to kill all tumor cells in vitro (LC90) during different periods of time (30 minutes-72 hours, FIG. 21)).

MiaPaca = assay: Sensitivity to growth inhibition, MiaPaca; format: cell-based; settings: pancreatic adenocarcinoma, AR−
NKE = assay: Sensitivity to growth inhibition, NKE; format: cell-based; settings: normal kidney, AR−
RCC45 = assay: Sensitivity to growth inhibition, RCC45; format: cell-based; settings: renal cell carcinoma, AR−
androgen receptor = assay: Androgen receptor level / degradation in cells; format: cell-based; settings: CWR22r or MCF7 cells with inhibited p53 activity
Excerpt: (§4) Also tested was the hypothesis that degradation of androgen receptor in prostate and breast cancer cells may be due to p53 induced accumulation of mdm2, which is also ubiquitin ligase for androgen receptor (FIG. 15). p53 was inactivated in several cell lines using different approaches what led to the blockade of mdm2 accumulation after c52 treatment. However androgen receptor was still degraded in c52 treated cells even in the absence of p53 activation and mdm2 accumulation (FIG. 16).

[1] = Plasma concentration (PK) after intravenous and intraperitoneal injections; format: in vivo; settings: 50-100 mg/kg; for plasma concentration time course: after IV and IP injections; for bioavailability through IP injection: plasma concentrations similar or even higher after IP than IV
Caveolin 1 = Caveolin 1 expression in sensitive versus resistant cells; format: cell-based; settings: MDA MB 231 and MCF7 cells
Method: FIG. 12. Expression of Caveolinl in sensitive versus resistant cells. Caveolinl is expressed in resistant MDA MB 231 cells, but not in sensitive MCF7 cells.
Analysis of gene expression among 50 breast cancer cell lines differed in sensitivity as well as shRNA screening of resistant breast cancer cells identified Calveolin (FIG. 11) as a potential gene associated with resistance to c52. mRNA expression of Calveolin1 was tested among our sensitive and resistant cells as well as in response to c52 treatment. As expected Calveolin1 was expressed only in resistant cells, however it was not changed upon c52 treatment (FIG. 12). […] Calveolin1 was cloned in lentiviral expression vector and are now testing if overexpression of Calveolin1 in sensitive cells will make them resistant to c52 treatment.

Mdm2 = Mdm2 accumulation, Western Blot; format: cell-based; settings: MCF7 cells with functionally inactive p53 (R175H, GSE56)
Method: Results of Western Blot analysis: CWR22r cells were treated with 1 uM c52 for indicated time intervals.
as §4

[2] = Tissue drug concentrations (tumor, liver, plasma) in treated CWR22R tumor-bearing mice; format: in vivo
Method: (§5) We tested these compounds in an in vivo efficacy experiment using model of CRPC in SCID mice, CWR22R. Two compounds, PLA1079 and 1125, which were synthesized in the amount of 500 mg were tested in full scale experiment with either 5 IV daily injections or 10 IP daily injections. After 5 IP or IV injections intra-tumor concentration of the compounds were measured in few mice from this experiment.
Two other compounds, PLA1148 and 1098 (PK testing in FIGS. 8 and 9) were tested in a small scale efficacy experiment. Upon PK testing of the compound PLA1148 one mouse was injected twice with 10 min interval. However the concentration of the drug in plasma of this mouse was not twice, but >4 times higher than in mice injected once. […] It was decided to utilize this observation in an attempt to get higher plasma and tumor concentration of both compounds. Therefore in the pilot efficacy experiment in the same model of CWR22R cells mice were treated with 2 IP injections with 10 minute interval. Treatment with PLA1098 was carried out for two days. […] However this is so far the highest concentration found in tumor. […]
as §3

CWR22R tumors = assay: In vivo efficacy, subcutaneous xenografts of CWR22R cells in SCID mice
Method: as §5
(§6) Two other compounds, PLA1148 and 1098 (PK testing in FIGS. 8 and 9) were tested in a small scale efficacy experiment. Upon PK testing of the compound PLA1148 one mouse was injected twice with 10 min interval. However the concentration of the drug in plasma of this mouse was not twice, but >4 times higher than in mice injected once. […] It was decided to utilize this observation in an attempt to get higher plasma and tumor concentration of both compounds. Therefore in the pilot efficacy experiment in the same model of CWR22R cells mice were treated with 2 IP injections with 10 minute interval. Treatment with PLA1098 was carried out for two days. […] However this is so far the highest concentration found in tumor.
Pilot efficacy experiments were run for compounds: PLA1163, PLA1148 using the same model of subcutaneous xenografts of CWR22R cells in SCID mice (FIGS. 18 and 19).

p21 = p21 expression upon treatment; format: cell-based; settings: sensitive cells
[3] = Toxicity / side effects in treated mice; format: in vivo
Method: as §6
This compound may be also potentially promising.

[4] = test system: presumable target protein; assay: DARTS (Drug Affinity Responsive Target Stability) assay in CWR22r lysates; format: binding; settings: protein lysates from CWR22r cells
Method: FIG. 24. DARTS (Drug Affinity Responsive Target Stability) assay was performed using c52 and PLA1118. According to this assay these compounds are capable of protecting presumable target protein from protease degradation. Protein lysates from sensitive CWR22r cells were incubated with or without the drug and subsequently digested with the indicated concentration of pronase. A. c52 was used (lane T-treated, M-marker) with indicated concentrations of pronase; ability of c52 to protect its target from protease cleavage was judged based on presence of protein band in the treated lane vs the untreated (UT) control.
Target identification through affinity chromatography and sensitivity to proteolysis methods was undertaken. […] These bands were excised from gel and sent for protein sequencing. (FIG. 24).

## CCCn1c2ccccc2c2cc(C(C)=O)ccc21 [Compound 1-3, 1-(9-propyl-9H-carbazol-3-yl)ethanone]
ZR751
  Compound 1-3 sensitivity: S
PC3
  Compound 1-3 sensitivity: R
HCC202
  Compound 1-3 sensitivity: S
HCC1419
  Compound 1-3 sensitivity: R
HMEC
  Compound 1-3 sensitivity: R
VCaP
  Compound 1-3 sensitivity: R
MDAMB415
  Compound 1-3 sensitivity: S
SKRC45
  Compound 1-3 sensitivity: R
MCF7
  Compound 1-3 sensitivity: S
Du145
  Compound 1-3 sensitivity: R
AU565
  Compound 1-3 sensitivity: S
MRC5
  Compound 1-3 sensitivity: R
Hep3B
  Compound 1-3 sensitivity: S
Normal hepatocytes
  Compound 1-3 sensitivity: R
EFM192A
  Compound 1-3 sensitivity: S
HepG2
  Compound 1-3 sensitivity: S
CAMA1
  Compound 1-3 sensitivity: R
ZR7530
  Compound 1-3 sensitivity: S
MDAMB453
  Compound 1-3 sensitivity: S
MCF10A
  Compound 1-3 sensitivity: R
BT474
  Compound 1-3 sensitivity: S
LNCaP
  Compound 1-3 sensitivity: S
MDA-MB-231
  IC50: > 20000 nM
ACHN
  Compound 1-3 sensitivity: R
UACC893
  Compound 1-3 sensitivity: R
T47D
  Compound 1-3 sensitivity: S
PPC1
  Compound 1-3 sensitivity: R
SUM185PE
  Compound 1-3 sensitivity: S
Hela; Hela, cervix adenocarcinoma, AR−
  Compound 1-3 sensitivity: R
Hela; Homo sapiens, HeLa
  IC50: > 20000 nM
HT1080
  Compound 1-3 sensitivity: R
C4-2
  Compound 1-3 sensitivity: S
PANC1
  Compound 1-3 sensitivity: R
CWR22R; CWR22R, castration resistant prostate cancer, AR+
  Compound 1-3 sensitivity: S
CWR22R; Homo sapiens, 22Rv1, CWR22R, read-out: IC50 for inhibition of growth
  IC50: < 1000 nM
MiaPaca
  Compound 1-3 sensitivity: R
NKE
  Compound 1-3 sensitivity: R
RCC45
  Compound 1-3 sensitivity: R

## CCCn1c2ccccc2c2cc(-c3nnco3)ccc21 [PLA1079]
Androgen receptor
  AR level: AR is being degraded
[1]
  plasma concentration time course: fast reduction of concentration during the first hour
  bioavailability through IP injection: very high
Caveolin 1
  Caveolin1 expression upon treatment: did not change levels of Caveolinl expression
Mdm2
  Mdm2 level: Mdm2 is no longer overexpressed
[2]; 100 mg/kg, IP/IV
  Tumor concentration: 24 to 48 nM
CWR22R tumors; CWR22R in SCID mice, 5 IV daily injections or 10 IP daily injections
  in vivo efficacy: absence of in vivo efficacy
p21
  p21 expression: overexpression of p21 in sensitive cells
CWR22R
  CC50: 120 nM

## CCCn1c2ccccc2c2c3c(ccc21)C(=O)N(C)C3 [PLA1098]
[3]; 2 IP injections with 10 minute interval, two days
  side effects during treatment: no signs of side effects
[3]; summary statement
  signs of toxicity: without any signs of toxicity
[1]
  plasma concentration time course: fast reduction of concentration during the first hour
  bioavailability through IP injection: very high
[4]
  protection of target protein from pronase degradation: protected their targets from degradation
[2]; 100 mg/kg, IP
  Liver: 0 nM
  Tumor concentration: 23 to 25 nM
[2]; 2 tested tumors, 24 hours after last injection
  Intratumor concentration: 25 nM
[2]; 24 hours after last injection
  compound in liver: no detectable
  compound in plasma: no detectable
CWR22R tumors; CWR22R, 2 IP injections with 10 minute interval for two days, 12 days after treatment
  tumor volume and tumor weight vs vehicle control: certain reduction of tumor volume and tumor weigh in the 1098 treated group vs vehicle control, but not statistically significant
CWR22R tumors; summary statement
  in vivo efficacy: evidence of in vivo efficacy
CWR22R
  CC50: 40 nM
